The values below come from patent publication US20130158066A1, “4-AZAINDOLE INHIBITORS OF CRAC” (Hoffmann-La Roche Inc., priority 2011, published 2013).

Usually IC50 stands for the concentration that gives 50% inhibition. A higher IC50 goes with weaker potency.

The test deals with IL-2 production in Jurkat cell. Put plainly: Jurkat IL-2 Production Assay. The following applies: Homo sapiens, Jurkat cell (ATCC), 18-20 h incubation, serum/stimulant condition (1% FBS/PHA or 30% FBS/PMA-ionomycin) not given. It is filed as cell-based. Here is the method: Jurkat IL-2 Production Assay
Jurkat cell (ATCC) was grown in RPMI 1640 with 10% FBS and 1% penicillin/streptomycin. The cell density was kept at 1.2˜1.8×10^6/mL in culture flask before seeding into culture plate, and the cell density in the plate was 0.5×10^6/[…]/well.
RPMI 1640 with 1% FBS or 30% FBS for high serum assay.
serial dilution was done in 100% DMSO, and intermediate dilution was done with RPMI 1640 medium with 1% FBS. The DMSO final concentration in culture well was 0.25%.
PHA (Sigma#L9017-10MG) was used for the assay with 1% FBS in culture medium, and added after 10 minutes exposure of cell to compound/DMSO. The PHA final concentration in culture well was 5 μg/mL. PMA (Sigma# P-8139 5MG)/Ionomycin (Sigma# I0634-5MG) was used for the assay with 30% FBS in culture medium, and added at same time point as the 1% FBS culture assay. The final concentration of PMA was 50 ng/mL, and Ionomycin final concentration was 500 ng/mL.
at 37° C. with 5% CO2 and 95% humidity for 18 h ˜20 h.
IC50 was calculated with the data analysis software XLfit4, General Pharmacology model 251.
The molecule `Cc1cc(Cl)ncc1-c1ccc2[nH]c(-c3c(F)cccc3Cl)cc2n1` [Example 2, 2-(2-Chloro-6-fluoro-phenyl)-5-(6-chloro-4-methyl-pyridin-3-yl)-1H-pyrrolo[3,2b]pyridine] returned an IC50 of 246 nM.

Molecule `Cn1nc(C(F)(F)F)cc1-c1ccc2[nH]c(-c3c(F)cccc3Cl)cc2n1` [Example 3, 2-(2-Chloro-6-fluoro-phenyl)-5-(2-methyl-5-trifluoromethyl-2H-pyrazol-3-yl)-1H-pyrrolo[3,2-b]pyridine] yielded a 50% inhibitory concentration (IC50) of 94 nM.

`Cc1cc(C(F)(F)F)ccc1-c1ccc2[nH]c(-c3c(F)cccc3Cl)cc2n1` [Example 4, 2-(2-chloro-6-fluorophenyl)-5-(2-methyl-4-(trifluoromethyl)phenyl)-1H-pyrrolo[3,2-b]pyridine]: the IC50 amounted to 80 nM.

`Cc1cc(C#N)ccc1-c1ccc2[nH]c(-c3c(F)cccc3Cl)cc2n1` [Example 5, 4-(2-(2-chloro-6-fluorophenyl)-1H-pyrrolo[3,2-b]pyridin-5-yl)-3-methylbenzonitrile]: the IC50 is 347 nM.

The molecule `Cc1cc(S(=O)(=O)N(C)C)ccc1-c1ccc2[nH]c(-c3c(F)cccc3Cl)cc2n1` [Example 6, 4-(2-(2-chloro-6-fluorophenyl)-1H-pyrrolo[3,2-b]pyridin-5-yl)-N,N,3-trimethylbenzenesulfonamide] came in with an IC50 of 92 nM.

`Cc1cc(S(=O)(=O)N(C)C)ccc1-c1ccc2[nH]c(-c3ccccc3Cl)cc2n1` [Example 7, 4-[2-(2-Chloro-phenyl)-1H-pyrrolo[3,2-b]pyridin-5-yl]-3,N,N-trimethyl-benzenesulfonamide] gave a 50% inhibitory concentration (IC50) of 300 nM.

On to `Cn1nc(C(F)(F)F)cc1-c1ccc2[nH]c(-c3ccc(F)cc3Cl)cc2n1` [Example 8, 2-(2-Chloro-4-fluoro-phenyl)-5-(2-methyl-5-trifluoromethyl-2H-pyrazol-3-yl)-1H-pyrrolo[3,2-b]pyridine], for which the IC50 was 147 nM. This IC50 is about 2-fold lower than that of the molecule before.

Molecule `Cc1cc(S(=O)(=O)N(C)C)ccc1-c1ccc2[nH]c(-c3ccc(F)cc3Cl)cc2n1` [Example 9, 4-[2-(2-Chloro-4-fluoro-phenyl)-1H-pyrrolo[3,2-b]pyridin-5-yl]-3,N,N-trimethyl-benzenesulfonamide] came in with an IC50 of 98 nM.

As to `Cc1cc(S(=O)(=O)N(C)C)ccc1-c1ccc2[nH]c(-c3c(F)cccc3F)cc2n1` [Example 10, 4-[2-(2,6-Difluoro-phenyl)-1H-pyrrolo[3,2-b]pyridin-5-yl]-3,N,N-trimethyl-benzenesulfonamide], half-maximal inhibition (IC50) was put at 134 nM.

Turning to `Cc1cc(C#N)ccc1-c1ccc2[nH]c(-c3c(F)cccc3F)cc2n1` [Example 11, 4-[2-(2,6-Difluoro-phenyl)-1H-pyrrolo[3,2-b]pyridin-5-yl]-3-methyl-benzonitrile], half-maximal inhibition (IC50) was put at 767 nM.

Regarding `Cn1nc(C(F)(F)F)cc1-c1ccc2[nH]c(-c3c(F)cccc3F)cc2n1` [Example 12, 2-(2,6-Difluoro-phenyl)-5-(2-methyl-5-trifluoromethyl-2H-pyrazol-3-yl)-1H-pyrrolo[3,2-b]pyridine], the IC50 was 200 nM.

Take `COc1cc(F)c(-c2cc3nc(-c4ccc(S(=O)(=O)N(C)C)cc4C)ccc3[nH]2)c(F)c1` [Example 13, 4-(2-(2,6-difluoro-4-methoxyphenyl)-1H-pyrrolo[3,2-b]pyridin-5-yl)-N,N,3-trimethylbenzenesulfonamide]: the IC50 was 169 nM.
